What was measured:
[1] = test system: ovalbumin-induced murine model of asthma; experiment: Lung resistance / airway hyper-responsiveness to methacholine in OVA asthma model; assay type: in vivo, BALB/c mice; details: oral
Protocol: (§1) All experimental procedures were carried out in accordance with the NIH Guidelines for the Care and Use of Laboratory Animals. Specific pathogen-free (SPF) male BALB/c mice (6-7 weeks of age, 18-22 grams), routinely screened serologically for relevant respiratory pathogens, were maintained in an animal housing facility for 1 week before use and given access to food and water ad libitum. Animals were randomly assigned to the indicated experimental groups, and sensitized with two intraperitoneal (IP) injections (20 μg ovalbumin (OVA) emulsified in 2 mg aluminum hydroxide (an adjuvant) in 200 μl phosphate buffer saline (PBS), pH 7.4), on days 1 and 10.
(§2) After another week, the animals were challenged by exposure to ovalbumin (OVA) aerosol (1%, w/v, in PBS) for 30 minutes each day on days 17, 18 and 19, in order to elicit an inflammatory reaction in the lungs characterized by airway hyper-responsiveness (AHR), an influx of inflammatory cells (particularly eosinophils), and increased pulmonary levels of various cytokines and transforming growth factors, protein nitration and lipid peroxidation.
(§3) The features of allergic inflammation typically reached their peak a day or two after the final exposure. Mice were then subjected to one of the following treatments: (i) sham-sensitization plus challenge with PBS; (ii) positive control-sensitization plus challenge with OVA; (iii) sensitization plus challenge with OVA and various indicated treatments (e.g., with nitroxide or dexamethasone), including different modes (oral, IP, intranasal, inhalation), time windows (sensitization stage, challenge stage, both stages and after the last challenge), and doses of nitroxide administration.
One day after the final challenge, respiratory activity and airway hyper-responsiveness (AHR) of experimental animals were evaluated. Whole body plethysmographs for enhanced pause (Penh) measurements are often used for assessment of AHR. However, critics have questioned the validity of Penh measurements, which supposedly measure airway obstruction of live non-sedated mice, stating that it is likely to measure the distress of the animal rather than actual obstruction. […] In brief, mice were sedated with an intraperitoneal (IP) injection of xylazine hydrochloride and anaesthetized with IP injection of pentobarbital. Subsequently, the animals were tracheostomized using an 18 gauge cannula, ventilated with a FlexiVent™ apparatus (SCIREQ), and muscle paralysis was induced with pancuronium bromide. The mice were ventilated in a quasi-sinusoidal fashion with the following settings: a tidal volume of 10 ml/kg, maximum inflation pressure of […] (30 cm H2O), a positive end expiratory pressure (PEEP) of 3 millibar and a frequency of 150 per minute. Following an equilibration period of 3 minutes of tidal ventilation, two lung inflations to a transrespiratory pressure of 2.5 millibar were performed and baseline measurements were taken. Airway hyper-responsiveness (AHR) was determined by aerosolizing increasing concentrations of methacholine. After baseline determination of airway resistance, mice were challenged with 0 to 64 mg/mL methacholine nebulized directly into the ventilatory circuit using an AeroNeb™ Lab nebulizer system (SCIREQ). Two models of respiratory mechanics were used to assess lung resistance: a linear 1st-order single compartment model and a constant-phase model. All data points were collected with FlexiVent™ software (SCIREQ). […]

[2] = test system: ovalbumin-induced murine model of asthma; experiment: Inflammatory cell counts in BAL fluid in OVA asthma model; assay type: in vivo, BALB/c mice
Protocol: as §1, §2, §3
(§4) Bronchoalveolar lavage (BAL) fluid (also referred to herein as “BALf”) and bronchial submucosal inflammation are characteristic features of asthma. Mice were euthanized with an overdose of 50 mg/kg pentobarbital and ice-cold phosphate buffer saline (PBS) (0.6 ml) was instilled into the lungs. BAL fluid was obtained by three aspirations via tracheal cannulation, centrifuged, and the supernatant collected and stored at −70° C. Cell pellets were re-suspended in PBS and 100 μl aliquots placed onto slides and centrifuged (200 g, 4° C., 10 minutes) in a cytospin machine. Induction of oxidative stress was evaluated using a 2′,7′-dichlorofluorescein fluorescence assay, and total IgE, IgG2a, panel of cytokines, transforming growth factors, collagen, protein nitration and lipid peroxidation were measured using commercial kits according to the manufacturer's recommendations. A Sircol™ collagen assay kit was obtained from Biocolor Life Sciences Assays, a protein nitration assay kit was obtained from Abcam, and other assay kits were obtained from PeproTech Asia.
(§5) Control and experimental groups contained 10 mice each. The effects of the nitroxides were investigated by feeding the mice ad libitum a diet of nitroxide-containing chow (1 weight percent) during both ovalbumin (OVA)-induced sensitization and challenging periods (days −2-19), during the sensitization period (days −2-11) or challenge period (days 13-19). Nitroxide-containing chow were prepared by dissolving 500 grams chow in a minimum volume of water containing 5 grams nitroxide and 5 grams commercial chicken soup powder, preparing the chow and drying it at 37° C. (animals were reluctant to eat nitroxide-containing chow until chicken soup powder was added).
3-CP was also administered using 3 daily intraperitoneal (IP) injections (200 μl, 0.15 M, ˜300 mg/kg) 0.5 hour prior to the challenge with OVA aerosol, or by nasal instillation (50 μl, 0.3 M, ˜150 mg/kg) twice a day 0.5 hour prior to the challenge with OVA aerosol and 6 hours later without exceeding its maximally tolerated dose, which has been previously established to be 300-500 mg/kg. Both 3-CP and TPL were non-toxic when administered orally or via IP injection to untreated OVA-challenged mice for 22 days. […]

[3] = Nitroxide concentration measurement by EPR in mouse blood and tissue; assay type: in vivo; details: mice fed chow with 0.7 weight percent 3-CPT, FIG. 12
Water-solubility = details: compared with 3-CP, data not shown
[4] = Toxicity / maximally tolerated dose in mice; assay type: in vivo; details: administered orally or via IP injection to untreated OVA-challenged mice for 22 days
Protocol: (§6) 3-CP was also administered using 3 daily intraperitoneal (IP) injections (200 μl, 0.15 M, ˜300 mg/kg) 0.5 hour prior to the challenge with OVA aerosol, or by nasal instillation (50 μl, 0.3 M, ˜150 mg/kg) twice a day 0.5 hour prior to the challenge with OVA aerosol and 6 hours later without exceeding its maximally tolerated dose, which has been previously established to be 300-500 mg/kg. Both 3-CP and TPL were non-toxic when administered orally or via IP injection to untreated OVA-challenged mice for 22 days.

[5] = Nitroxide concentration measurement by EPR in mouse blood and tissue; assay type: in vivo; details: mice
Protocol: Electron paramagnetic resonance (EPR) spectroscopy was used to determine residual levels of nitroxide in mouse tissue. Blood samples or tissue samples were diluted with 0.5 ml phosphate buffer (40 mM, pH 7.4) or water, inserted into a flexible capillary placed in a quartz tube installed within the EPR spectrometer cavity and assayed for residual nitroxide. A similar procedure was used to determine the residual nitroxide in tissue homogenates of various organs, which were corrected for blood contamination spectrophotometrically by following the absorption of oxyhemoglobin at 400-600 nm. Measured EPR signals were compared to those of a nitroxide standard solution.
In order to determine total hydroxylamine and nitroxide concentrations, 2 mM K3Fe(CN)6 was added to samples in order to oxidize hydroxylamines to the respective nitroxide, and the nitroxide level was determined by EPR spectroscopy as described hereinabove.
as §5, §6

IL-13 = IL-13 level in OVA asthma model; assay type: in vivo, BALB/c mice; details: OVA IP-Dex: dexamethasone intraperitoneal (1 mg/kg); lung tissue (table title)
Protocol: as §1, §2, §4
The efficacy of oral administration of 3-CP (1 weight percent in chow) during the sensitization period and/or challenge period was then compared to IP injection (˜300 mg/kg, 0.5 hour before the OVA challenge) or intranasal instillation (˜150 mg/kg, 0.5 hour before the OVA and 6 hours later) of 3-CP, as well as to dexamethasone treatment (1 mg/kg, 3 daily IP injections, 0.5 hour prior to the challenge with OVA aerosol).
In order to assess the effect of 3-CP on inflammatory signaling pathways, […] to procedures described hereinabove, upon oral, intranasal or IP administration of 3-CP.

With `CC1(C)C=C(C(N)=O)C(C)(C)N1[O]` [3-CPT, 3-carbamoyl-2,2,5,5-tetramethyl-3-pyrrolin-1-oxyl] the “effect on methacholine-induced lung resistance” value ([1]; 0.7 weight percent 3-CPT in chow, FIG. 14) was “reduced methacholine-induced lung resistance, albeit to a considerably lesser degree than 3-CP”, the “inhibiting increases in inflammatory cell levels (especially eosinophil levels) in asthmatic animals” value ([2]; 3-CPT oral (0.7 weight percent in chow) or intraperitoneal (300 mg/kg), FIG. 13) was “effective” and the “effect on OVA-induced increase of total cell counts in BAL fluid” value ([2]; oral, 0.7 weight percent 3-CPT in chow, FIG. 13) was “effective in reversing OVA-induced increase of total cell counts”. The “reduction to the respective hydroxylamine in the blood” value [3] was “most of the 3-CPT in the blood was reduced to the respective hydroxylamine” and the water-solubility (Water-solubility) was “lower water-solubility than 3-CP”.

In the case of `CC1(C)CC(O)CC(C)(C)N1[O]` [TPL, 4-Hydroxy-2,2,6,6-tetramethyl-piperidin-1-oxyl, reference compound], the “effect on methacholine-induced increase in lung resistance” value ([1]; 1 weight percent in chow, FIG. 3) is reported as “suppressed methacholine-induced increase in lung resistance”, the toxicity [4] is reported as “non-toxic” and the “effect on OVA-induced increase in total inflammatory cell and eosinophil counts in BAL fluid” value ([2]; oral, 1 weight percent in chow, FIG. 4) is reported as “attenuated the increase in total inflammatory cell counts and eosinophil counts”. The “residual concentration of the respective hydroxylamine compared with the nitroxide” value ([5]; data not shown) was “higher than those of the therapeutically active nitroxide free radical” and the “residual concentration of nitroxide in blood” value ([5]; oral administration (1 weight percent nitroxide in chow), FIG. 1) was “detectable levels”.

`C[C@@H]1C[C@H]2[C@@H]3CCC4=CC(=O)C=C[C@]4(C)[C@@]3(F)[C@@H](O)C[C@]2(C)[C@@]1(O)C(=O)CO` [dexamethasone, Dexamethasone, reference compound] showed an IL-13 level (IL-13) of 1.80 ng/mg.
